# US20240196893A1, “LOW TOXICITY COMPOUNDS FOR USE AS INSECTICIDES AND METHOD OF PRODUCING SAID COMPOUNDS” (UNIVERSIDADE DO PORTO, priority 2021, published 2024)
# What was measured:
# human keratinocytes = experiment: Viability of human keratinocytes (resazurin); format: cell-based; conditions: 50 μg/mL, 24 hours
# Description: Results represent the mean±SEM of at least three independent experiments, each of them performed in triplicate: **<0.01, ***p<0.001.
# The compound (6a) of the present application has no toxicity in human cells, contrarily to the ginkgolic acid (1), or the synthetic commercial insecticide evaluated as benchmark (chlorpyrifos) (FIG. 3), as assessed by cultivating human keratinocytes in the same cell density, exposing them to either compound (6a) or chlorpyrifos at the same concentration (50 μg/mL) and assessing cell viability after 24 hours using resazurin.
# [1] = system: insect effector caspase DRICE; experiment: Caspase-like activity in insect cells (DEVD-aminoluciferin substrate); format: cell-based; conditions: 50 μg/mL
# Description: The compound (6a) of the present application presents a mechanism of action distinct of the commercial insecticide chlorpyrifos, which may be of interest as a strategy to overcome pesticide resistances. Specifically, the compound (6a) is capable of activating insect effector caspase DRICE (involved in the process of cell death), while the commercial insecticide is unable to trigger this effect and has no impact in this target (FIG. 4). This was evaluated by incubating cells with the same cellular density with the proluminescent substrate DEVD-aminoluciferin, which becomes […] after cleavage by effector caspases, being detected subsequently in a luminescence detector.
# Sf9 cells [2] = conditions: Sf9 insect cells, 100 μg/mL, prior studies; cited from earlier work
# Sf9 cells [3] = experiment: Viability of Sf9 insect cells (resazurin); format: cell-based, Spodoptera frugiperda
# Source text: Results represent the mean+SEM of at least three independent experiments, each of them performed in triplicate: *p<0.05, **p<0.01, ***p<0.001.
Structure (SMILES),loss of cell viability (human keratinocytes),"caspase-like activity, increase over basal level [1]",loss of viability (Sf9 cells [2]),activity in Sf9 insect cells (compared with compound 1) (Sf9 cells [3]; Sf9 insect cells),"loss of cell viability relative to chlorpyrifos (Sf9 cells [3]; Spodoptera frugiperda cells, 100 μg/mL, 24 hours, resazurin)"
"CCOP(=S)(OCC)Oc1nc(Cl)c(Cl)cc1Cl [chlorpyrifos, O,O-diethyl O-(3,5,6-trichloropyridin-2-yl) phosphorothioate]",ca. 20%,no statistically significant changes,–,–,–
"CCCCCCC=CCCCCCCCCCc1cccc(O)c1C(=O)O [compound 1, 2-(heptadec-10-en-1-yl)-6-hydroxybenzoic acid]",–,no increase,ca. 75%,–,–
"CCCCCCC=CCCCCCCCCCc1cccc(OC)c1C(=O)O [compound 2, 2-(heptadec-10-en-1-yl)-6-methoxybenzoic acid]",–,–,–,lower activity,–
"CCCCCCCCCCCCNc1ccccc1C(=O)O [compound 6a, 2-(dodecylamino) benzoic acid]",–,400%,–,–,more than the triple
